From patent US4119657A, “Novel peroxycarbonate” (priority 1976, dated 1978)
Like-named read-outs stand apart in the source and are kept apart here.

Tests used:
[1] = 105° C
Excerpt: The susceptibility of the peroxycarbonate to heat decomposition can be ascertained from its half life and the foaming temperature thereof.

[2] = prior art peroxide; cited from earlier work
[3] = Foaming decomposition temperature; type: physicochemical
[4] = prior art peroxide, peroxy group in the copolymer; cited from earlier work

Compound	Half life ([1]; solvent benzene)	storage stability, in words [2]	foaming decomposition temperature [3]	decomposition activity, in words [4]	Half life ([1]; solvent toluene)
CC(C)C(=O)OOC(C)(C)C [t-butyl peroxy isobutyrate, t-butyl peroxyisobutyrate, reference compound]	0.37 h				
butyl peroxymethacrylate		not stable during storage			
CC(C)OC(=O)OOC(C)(C)C [t-butylperoxy isopropyl carbonate, reference compound]	4.1 h				
t-hexylperoxy allyl carbonate	3.8 h		107.3 °C		
C/C=C/C(=O)OOC(C)(C)C [t-butylperoxycrotonate]				active at low temperature	
C=CCOC(=O)OOC(C)(C)C [t-butylperoxy allyl carbonate]	3.9 h		117.5 °C		6.9 h
C=C(C)COC(=O)OOC(C)(C)C [t-butylperoxy methallyl carbonate]	2.9 h		117.5 °C		4.9 h
C=C(C)COC(=O)OOC(C)(C)CC(C)(C)C [1,1,3,3-tetramethylbutylperoxy methallyl carbonate]	1.1 h		106.5 °C		
t-hexylperoxy methallyl carbonate	2.9 h		115.5 °C		
C=CCOC(=O)OOC(C)(C)CC(C)(C)C [1,1,3,3-tetramethylbutylperoxy allyl carbonate]	1.4 h		103.5 °C		
